These results are taken from paper PMC6547740, “Potent and specific MTH1 inhibitors targeting gastric cancer” (Cell Death & Disease, 2019).

Experiment [1] has as its system Het-1A cells. Description: MTT cell viability, Het-1A. The settings on record: Homo sapiens, normal esophageal epithelial cell line, 72 h. The format is cell-based. The method, then: (§1) The cell viability was determined by 3-(4,5-dimethylthiazol-2-yl)-2,5-diphenyltetrazolium bromide (MTT) assay, according to the manufacturer’s instructions. 1 day before treatment, cells were seeded into 96-well plates at a concentration of 2–5 × 10^3 cells per well, followed by treatment with fresh medium containing serial dilutions of candidate compounds for 48 or 72 h, 20 μL of MTT solution (5 mg/mL in PBS) was then added to each well. After treatment, the plates were incubated at 37 °C for another 4 h. Subsequently, the MTT solution was removed and 150 μL of DMSO was added to each well for 10 min, and then the plates were shaken to dissolve the dark blue crystal (formazan), the absorbance was detected at 570 nm using a BioTek microplate reader. The data were analyzed using SPSS 20 software.

Experiment [2] deals with MGC-803 cells. The experiment is described as follows: Western blot of DNA damage response markers, MGC-803. The experiment is classed as cell-based, human. The following applies: MGC-803, 1-12 µM 48 h or 12 µM 12-48 h, dose and time-dependently, vs DMSO. How it is done: (§2) MGC-803, HGC-27 and GES-1 cells were seeded into 100mm^2 plastic dishes(1 × 10^5 cells/well) and incubated overnight prior to the addition of compound MI-743 at 1, 2, 4, 8 and 12 µM for 48 h or compound MI-743 at 12 µM for 12, 24, 36 and 48 h, respectively. After treatment, the cells were harvested and lysed with RIPA cell lysis buffer, containing protease inhibitor cocktail. Then, the cells were centrifuged at 12,000 × g for 20 min at 4 °C. The supernatant were collected and the concentration was determined by a Bicinchoninic Acid (BCA) Protein Assay kit, denatured at 100 °C for 10 min, separated by SDS−PAGE and transferred to 0.22 μm nitrocellulose membranes. After blocking by PBS containing 5% skim milk for 2 h at room temperature, the membranes were probed with the appropriate primary antibodies (1:500~1:1000) at 4 °C overnight, followed by the treatment of horseradish-peroxidase-conjugated secondary antibody (1:10000) at room temperature for 2 h. Subsequently, the membranes were washed with PBST, examined by enhanced chemiluminescence and the data was determined using Image J software.

For experiment [3], the system named is EC109 cells. The experiment is described as follows: MTT cell viability, EC109. The experiment is classed as cell-based. The settings on record: Homo sapiens, ECa-109, esophageal cancer cell line, 72 h. How it is done:
as §1

In experiment [4] the test system is MGC-803 cells. The experiment is described as follows: Alkaline comet assay, MGC-803. The experiment is classed as cell-based, human. The following applies: MGC-803, 10 µM, 48 h, compared with DMSO. The method, then:
(§3) MGC-803 and HGC-27 cells were seeded into 6-well plates(1.5 × 10^5 cells/well) and cultured overnight. For siRNA experiments, the control siRNA and MTH1 siRNA were transfected into cells. For compounds experiments, cells were treated with candidate compounds MI-743 for 48 h before collection. For the H2O2 control, cells were treated with 100 µM H2O2 for 10 min. Subsequently, cells were harvested, washed and resuspended with PBS. After counting, cells were mixed with 1.2% low melting-temperature agarose at 37 °C. The mixtures were layered onto pre-warmed glass slides, which were pre-coated with 1% agarose. After adding coverslips, slides were kept in 4 °C immediately for 10-15 min, followed by immersing in pre-chilled lysis buffer(2.5 M NaCl, 0.1 M EDTA, 10 mM Tris-HCL pH 7.7, 1% Triton X-100, 1% DMSO)for 5-8 h. Then, slides were washed three times with enzyme reaction buffer (40 mM HEPES pH 8.0, 0.1 M KCl, 0.5 mM EDTA and 0.2 mg/mL BSA) and incubated for another 45 min in pre-chilled alkaline electrophoresis buffer (50 mM NaOH, 1 mM EDTA, 1% DMSO, pH12.8). After electrophoresis for 30 min at 25 V, slides were neutralized with 0.4 M Tris-HCl pH 7.0 for 1 h and stained with 1‰ EB for 5 min. At last, images were acquired using fluorescence microscope and analysised by CometScore software.

In experiment [5] the target is MTH1 (Homo sapiens, UniProt P36639). The experiment is described as follows: MTH1 recombinant protein activity / inhibitor screening (malachite green). The following applies: 5 nM recombinant MTH1, dGTP substrate, absorbance 630 nm; read-out: IC50 (MTH1 inhibition). The format is biochemical. More on the design: His-tag; made in house; host or cells: E. coli BL21(DE3). How it is done:
On the basis of the ability of MTH1 in converting dGTP to dGMP and pyrophosphate, and the latter can then be hydrolyzed to […] by inorganic pyrophosphatase, the MTH1 activity was designed to measure the product of […], after its reaction with malachite green and ammonium molybdate(Fig. 2l), the green associated complex was measured at 630 nm by PerkinElmer Envision microplate reader.
Firstly, the assay buffer (100 mM Tris-acetate at pH 8.0, 40 mM NaCl, 10 mM Mg-acetate, 0.005% Tween 20 and 1 mM DTT) was added into a 96-well plate. Then, 5 nM recombinant human MTH1, […] dGTP and 0.2U/ml […] were added in sequence. After 60 min reaction, the mixture of 0.45 mg/mL malachite green and 4.2% ammonium molybdate in proportion of 3:1 were added. Then, the plates were incubated and shaken at room temperature for another 60 min. The absorbance was measured at 630 nm using the PerkinElmer Envision micro plate reader.

In experiment [6] the test system is B16-F10 cells. The experiment is described as follows: MTT cell viability, B16-F10. The format is cell-based. The settings on record: Mus musculus, 72 h. How it is done:
as §1

Experiment [7] relates to HGC-27 cells. The experiment is described as follows: Alkaline comet assay, HGC-27. The format is cell-based, human. The following applies: HGC-27, 10 µM, 48 h, compared with DMSO. The method, then: as §3
For experiment [8], the system named is L02 cells. The experiment is described as follows: MTT cell viability, L02. The experiment is classed as cell-based. The settings on record: Homo sapiens, normal liver cell line, 72 h. The method, then:
as §1

For experiment [9], the system named is HGC-27 cells. The experiment is described as follows: Western blot of DNA damage response markers, HGC-27. The experiment is classed as cell-based, human. The following applies: HGC-27, 1-12 µM 48 h or 12 µM 12-48 h, dose and time-dependently, vs DMSO. The method, then: as §2
Background: In western blotting, separated proteins are transferred to a membrane and probed.

The subject of experiment [10] is MGC-803 cells. The experiment is described as follows: Colony formation assay, MGC-803. The format is cell-based, human. The following applies: MGC-803, 7 days treatment, compared with DMSO or MI-929. How it is done:
(§4) The day before treatment, cells were seeded into six-well plates at a concentration of 1 × 10^3 cells per well, and then the media were replaced with fresh media containing serial concentrations of candidate compounds. After 7 days of treatment, the cells were fixed with 75% ethanol, stained with 0.1% crystal violet solution and captured by the microscopy (Leica). After that, the crystal violet crystals were dissolved by adding methanol. The absorbance at 595 nm was measured by a BioTek micro plate reader. In the end, the data were analyzed using the GraphPad Prism 5 software.

Experiment [11] relates to HGC-27 cells. Description: Colony formation assay, HGC-27. The following applies: HGC-27, 7 days treatment, compared with DMSO or MI-929. The experiment is classed as cell-based, human. How it is done: as §4

As for `C#CCSc1nc(NNC(N)=S)c(C#N)c(-c2ccc3oc(=O)ccc3c2)n1` [MI-743, 2-(5-cyano-6-(2-oxo-2H-chromen-6-yl)-2-(prop-2-yn-1-ylthio)pyrimidin-4-yl)hydrazine-1-carbothioamide], the IC50 in experiment [1] is 19.2 ± 1.89 µM; in experiment [3], 6.99 ± 0.84 µM; in experiment [5], 0.0914 ± 0.00145 µM; in experiment [6], 8.08 ± 0.91 µM; in [8] it was 17.3 ± 1.23 µM. The “expression levels of p53pS15, ATMpS1981 and p21” value in experiment [2] and in [9] was “significantly increased” each time. The comet tail moment result in experiment [4] and in [7] was “significantly elevated” throughout. Further, the colony formation entry in experiment [10] was “smaller and fewer colonies”; in experiment [11], “smaller and fewer colonies”.

The term IC50 denotes the midpoint of a concentration-inhibition curve.
